This note sets out measurements from PMC9532478, “A Novel CTLA-4 affinity peptide for cancer immunotherapy by increasing the integrin αvβ3 targeting” (Discover. Oncology, 2022).

Ends that are not written are not given here. Some results are limits rather than exact numbers.

Series [1] concerns the target T1, hCTLA-4 protein (Homo sapiens, UniProt P16410).
T1 sequence (P16410 36-223): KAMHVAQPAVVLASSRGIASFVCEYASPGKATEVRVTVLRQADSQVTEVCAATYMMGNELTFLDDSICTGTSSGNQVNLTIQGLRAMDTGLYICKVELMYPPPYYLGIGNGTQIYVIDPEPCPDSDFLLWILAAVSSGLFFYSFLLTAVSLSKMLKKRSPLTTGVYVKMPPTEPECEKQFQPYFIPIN
In words: MST affinity of CTLA-4 binding peptides to hCTLA-4 protein. The settings on record: Monolith NT.115, Red-NHS647 dye-labelled protein, peptides from 400 μmol/L, 16 twofold dilutions, room temperature 5 min. On the procedure: The CTLA-4 binding peptides were first diluted to 400 μmol/L with MST buffer, and twofold serial dilutions were carried out to obtain 16 concentration gradients subsequently. Equal Red-NHS647 dye-labelled protein and peptide volumes were incubated at room temperature for 5 min, the mixture was loaded onto standard capillaries (NanoTemper Technologies GmhH), and immediately placed in an MST instrument for detection. The dissociation constant (Kd) was determined using the NanoTemper analysis software MO. Affinity Analysis v2.2.4.

Another series has as its system CT26 tumour. In words: CT26 tumour-bearing mice, peritumoral LC4. The format is in vivo. On the procedure:
BALB/c mice were subcutaneously injected with 2 × 10^5 syngeneic CT26 cells to establish colorectal cancer xenograft model. The mice were divided into control group, LC4 (1 mg / kg) group and LC4 (4 mg / kg) group when the tumor grew to 40–80 mm.^3, peritumoral administration for 14 days. Statistical graph of A tumor volumes and B body weight of LC4 (1 mg / kg) group, LC4 (4 mg / kg) group and control group. Data are expressed as the mean ± SD (n = 5) and statistical significance between groups was determined by Student’s t test: *p < 0.05, ***p < 0.001
Fig. 6 The LC4 activation on T cells was determined in vivo. […] Data are expressed as the mean ± SD (n = 5) and statistical significance between groups was determined by Student’s t test: *p < 0.05, **p < 0.01, ***p < 0.001, ****p < 0.0001; ns = no significance TEXT PRINTED IN THE PICTURE: (A) LC4: Tumor CD3^+CD8^+(%): 6.86 (1mg/kg); Tumor CD3^+CD8^+(%): 19.3 (4mg/kg) | (B) LC4: Spleen CD8^+IFN-γ^+(%): 42.9 (1mg/kg); Spleen CD8^+IFN-γ^+(%): 42.5 (4mg/kg) | (C) LC4: Spleen CD4^+IFN-γ^+(%): 15.6 (1mg/kg); Spleen CD4^+IFN-γ^+(%): 14.2 (4mg/kg) | (D) LC4: DLN CD8^+IFN-γ^+(%): 45.8 (1mg/kg); DLN CD8^+IFN-γ^+(%): 56 (4mg/kg) | (E) LC4: DLN CD4^+IFN-γ^+(%): 2.31 (1mg/kg); DLN CD4^+IFN-γ^+(%): 2.83 (4mg/kg) DOUBTS OF THE COPYIST ABOUT THIS PICTURE: The gate numbers in the flow cytometry plots are printed without a measure or unit. […]

In series [2] the target is T2, hCTLA-4 protein (human, UniProt P16410 36-161).
T2 construct: human CTLA-4 protein, soluble recombinant protein; The MST methods speak of a 'Red-NHS647 dye-labelled protein' without naming it; also called human CTLA-4 protein
T2 sequence (looked up): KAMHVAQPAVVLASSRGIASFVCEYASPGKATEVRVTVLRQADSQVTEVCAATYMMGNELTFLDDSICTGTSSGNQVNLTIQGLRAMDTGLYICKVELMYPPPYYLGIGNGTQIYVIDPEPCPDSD
Kind of series: MST; Monolith NT.115; peptides first diluted to 400 μmol/L in MST buffer, 16 twofold dilutions; equal volumes of Red-NHS647 dye-labelled protein and peptide, room temperature 5 min, standard capillaries. Particulars: both partners purified.

For orientation: Kd means a measure of binding affinity in units of concentration. Higher therefore signals a looser complex.

Molecule HHLRIPYALDQT [LC2] displayed a Kd on hCTLA-4 protein [1] greater than 200 µM.

In turn, RWKDTAYALTNN [LC1] showed a Kd at hCTLA-4 protein [1] greater than 200 µM.

In turn, ASANDNRLRYTY [LC6] came in with a Kd on hCTLA-4 protein [1] greater than 200 µM.

SHRWQVWSRDRA [LC5]: the Kd at hCTLA-4 protein [1] was greater than 200 µM.

As for WGHSHFSHWKGR [LC4], the “effect on weight of mice (in words)” value in the series with CT26 tumour (1 mg/kg/day or 4 mg/kg/day, peritumoral, 14 days, n = 5) is “no significant effect on the weight of mice”. The “pathological changes in heart, liver, lung, kidney (H&E staining, in words)” value in the series with CT26 tumour (mouse, in vivo) is listed as “No obvious pathological changes”.

B1: LC3 (peptide)
peptide: SWHWHTHVRHQM
notes: 12-mer selected from the Ph.D.-12 phage display peptide library on hCTLA-4; source: synthetic peptide (solid phase Fmoc synthesis, RP-HPLC)
In the series with hCTLA-4 protein [2], B1 registered a Kd of 0.04 ± 0.01 µM.

B2: LC4 (peptide)
peptide: WGHSHFSHWKGR
notes: 12-mer selected from the Ph.D.-12 phage display peptide library on hCTLA-4; also called LC4 peptide; source: synthetic peptide (solid phase Fmoc synthesis, RP-HPLC)
Turning to B2, the Kd with hCTLA-4 protein [2] was found to be 6.86 ± 2.63 µM.

B3: LC8 (peptide)
peptide: RHHSSNPRDTAP
notes: as for B1
In the case of B3, the affinity with hCTLA-4 protein [2], expressed as Kd, was 8.82 ± 0.69 µM.

B4: LC7 (peptide)
peptide: LDRPSSLAHLAS
notes: as for B1
In turn, B4 showed a Kd with hCTLA-4 protein [2] of 2.14 ± 0.69 µM.
